Reference: article PMC10467082, “Anti-Toxoplasma gondii Effects of Lipopeptide Derivatives of Lycosin-I” (Toxins, 2023)

Legend:
[1] = system: T. gondii tachyzoites; type: cell-based, Toxoplasma gondii
Procedure: The HFF cells were seeded in 6-well plates (1 × 10^6 cells per well) and incubated for 48–72 h. Cells in the 6-well plates were infected with 500 fresh tachyzoites per well for 2 h. The well in which cells were not infected with tachyzoites was considered the blank control group. Cells infected with tachyzoites were then treated with Lycosin-I (10 μM), L-C12 (10 μM), L-an (10 μM), SDZ (10 μM, positive control) and DMEM (negative control), respectively. After 7 days, HFFs in the plates were washed twice with PBS, fixed with methanol for 5 min, and then stained with crystal violet for 20 min. Six-well plates were washed with running water, dried, photographed, and then the number and area of plaques were counted using Photoshop version 2020. Three independent experiments were carried out.

[2] = system: RH strain of T. gondii; type: in vivo, mouse; settings: mouse, in vivo, ip, 4 mg/kg/day
Procedure: To evaluate the anti-T. gondii effect of lipopeptides in vivo, we established a mouse model acutely infected with the RH strain of T. gondii. Forty 8-week-old female BALB/c mice weighing 17–19 g were randomly divided into 5 groups (n = 8 per group) and intraperitoneally injected with 1 × 10^3 tachyzoites per mouse. Lycosin-I, L-C12, L-an and sulfadiazine (SDZ) were dissolved in PBS, respectively. As these peptides are small linear peptides that are easily degraded by pepsin; mice were treated with these peptides via intraperitoneal injection (the same way that the mice were infected with T. gondii) rather than oral gavage. After 4 h of infection, mice were traperitoneally injected with 4 mg/kg of Lycosin-I, L-C12, L-an and sulfadiazine solution (once a day) for 7 days. Mice in the negative control group were treated with PBS. Mice in this condition observed daily and the time of death was recorded. The experiment was approved by the Ethics Committee of the School of Basic Medicine of Central South University (approval number: 2021-KT24).

[3] = system: T. gondii tachyzoites; settings: mouse, in vivo
Procedure: Therefore, the mice were treated with 4 mg/kg/day of SDZ or lipopetides for 7 days, and the survival time of the mice was closely monitored for 15 days. […] We also determined the parasite load in the peritoneal fluid and tissues of mice acutely infected with T. gondii after 5 days of treatment. The number of tachyzoites in the peritoneal fluid of the mice was directly counted using a blood cell counting plate (Figure 4B), while the expression of the surface antigen SAG1, a membrane surface protein specific to tachyzoites, was detected via qRT-PCR in the heart, liver, spleen, lung and brain of the mice (Figure 4C–G).
(§1) Total RNA was extracted from each sample using Total RNA Isolation Kit (ENOVA BIO Co., Ltd., Wuhan, China), in accordance with the manufacturer’s instructions. Reverse transcription of RNA into cDNA was performed using the PerfectStart Uni RT&qPCR Kit (TransGen Biotech Co., Ltd., Beijing, China) in accordance with the instructions. cDNA was used as a template for qRT-PCR using PerfectStart Uni RT&qPCR Kit (TransGen Biotech Co., Ltd., Beijing, China). Primers, listed in Table 2, were designed and synthesized by a biotechnology company (Sangon Biotech Co., Ltd., Shanghai, China). Analysis was performed using the comparative threshold cycle method (2^−∆∆Ct). The gene expression levels of genes were normalized to those of housekeeping genes (β-actin or GAPDH).

[4] = system: IFN-γ; type: in vivo, mouse; settings: mouse, in vivo
Procedure: (§2) Once T. gondii has infected a host, a number of inflammatory responses can be induced in the host to resist T. gondii invasion and proliferation. Therefore, we wanted to investigate the expression levels of anti-inflammatory and pro-inflammatory factors in the mice treated with lipopeptides. The expression levels of IFN-γ, TNF-α, IL-4 and IL-10 in the spleen tissues of mice after 5 days of treatment were determined via qRT-PCR (Figure 5). […] Compared to the PBS group, all treatment groups promoted the upregulation of the pro-inflammatory cytokines IFN-γ and TNF-α and the anti-inflammatory cytokine IL-4.
as §1

[5] = system: IL-10; type: in vivo, mouse; settings: mouse, in vivo
Procedure: as §2, §1

[6] = system: IL-4; type: in vivo, mouse; settings: mouse, in vivo
Procedure: as §2, §1

[7] = system: TNF-α; type: in vivo, mouse; settings: mouse, in vivo
Procedure: as §2, §1

[8] = system: Toxoplasma; settings: cited from earlier work
From the text: To evaluate the efficacy of the lipopeptides in vivo, we established a mouse model of acute T. gondii infection.

[9] = system: Toxoplasma; settings: mouse; cited from earlier work
From the text: We established a mouse model acutely infected with tachyzoites, recorded the survival time of the mice and determined the parasite load in the tissues of the mice. Lycosin-I and L-an can effectively prolong the survival time of mice.

## Nc1ccc(S(=O)(=O)Nc2ncccn2)cc1 [SDZ, Sulfadiazine]
[1]
  number and area of plaques in contrast with DMEM group: significantly reduced
  plaques compared to DMEM group: no obvious plaque
[2]
  survival time of mice compared to control group: could not prolong the survival time
[3]
  parasite load in peritoneal fluid and tissues compared to PBS group: effectively inhibit the proliferation of tachyzoites in mice
[4]
  expression of IFN-γ in spleen compared to PBS group: promoted the expression
[5]
  expression of IL-10 in spleen compared to PBS group: inhibited the upregulation of IL-10
[6]
  expression of IL-4 in spleen compared to PBS group: promoted IL-4 expression
[7]
  expression of TNF-α in spleen compared to PBS group: promoted the expression
[8]
  anti-Toxoplasma effect in vitro: anti-Toxoplasma effect was also observed
[9]
  anti-Toxoplasma effect in vivo: anti-Toxoplasma effect was also observed
